pIC50: −log10 of the molar value. Where two headings read alike, the source gives them in different places.
What was measured:
[1] = biological target: T1, HDAC6 (Homo sapiens, UniProt Q9UBN7); experiment: Western blot for acetylated alpha-tubulin (HDAC6 inhibition in cells); assay type: cell-based; details: 10 or 20 um (FIG. 8A)
T1 sequence (Q9UBN7 1-1215): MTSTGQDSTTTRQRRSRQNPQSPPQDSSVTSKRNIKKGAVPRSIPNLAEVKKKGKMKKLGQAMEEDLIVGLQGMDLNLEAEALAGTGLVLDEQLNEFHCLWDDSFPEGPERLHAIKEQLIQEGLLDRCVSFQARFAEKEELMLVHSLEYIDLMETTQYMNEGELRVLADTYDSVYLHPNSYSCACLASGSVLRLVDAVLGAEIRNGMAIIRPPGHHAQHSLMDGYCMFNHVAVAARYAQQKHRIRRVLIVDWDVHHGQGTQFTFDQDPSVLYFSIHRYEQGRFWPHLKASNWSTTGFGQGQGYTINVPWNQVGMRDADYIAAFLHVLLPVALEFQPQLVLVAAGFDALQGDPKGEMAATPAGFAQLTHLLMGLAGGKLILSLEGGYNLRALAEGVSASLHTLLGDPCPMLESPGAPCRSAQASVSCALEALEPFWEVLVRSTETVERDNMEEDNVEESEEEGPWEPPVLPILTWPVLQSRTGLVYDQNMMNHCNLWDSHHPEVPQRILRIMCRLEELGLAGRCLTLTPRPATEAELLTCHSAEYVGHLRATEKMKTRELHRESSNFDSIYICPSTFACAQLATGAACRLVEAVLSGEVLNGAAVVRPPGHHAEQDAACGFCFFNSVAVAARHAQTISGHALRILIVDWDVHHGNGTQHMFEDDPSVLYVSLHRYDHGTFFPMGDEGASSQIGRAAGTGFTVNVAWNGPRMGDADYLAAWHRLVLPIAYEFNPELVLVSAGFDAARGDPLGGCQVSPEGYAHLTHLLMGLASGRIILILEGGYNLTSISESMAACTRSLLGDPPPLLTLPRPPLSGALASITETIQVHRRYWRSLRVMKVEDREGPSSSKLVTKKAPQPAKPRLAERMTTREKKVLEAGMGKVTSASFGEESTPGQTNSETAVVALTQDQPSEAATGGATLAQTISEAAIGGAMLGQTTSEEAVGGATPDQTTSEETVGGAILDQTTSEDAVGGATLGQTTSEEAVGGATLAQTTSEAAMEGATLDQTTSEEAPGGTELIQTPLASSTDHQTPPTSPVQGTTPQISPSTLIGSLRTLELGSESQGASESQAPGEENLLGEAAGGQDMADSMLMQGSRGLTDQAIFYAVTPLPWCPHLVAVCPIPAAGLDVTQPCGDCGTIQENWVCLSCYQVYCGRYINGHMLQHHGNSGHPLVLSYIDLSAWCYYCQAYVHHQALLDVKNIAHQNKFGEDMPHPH

[2] = tested on: RPMI8226 cells; experiment: Combination with bortezomib, MTT cytotoxicity, combination index; assay type: cell-based, human; details: for CI (combination index): RPMI8226, MTT, 24 h
Method: The combined effect of drugs was analyzed by isobologram analysis using the Compusyn software program (ComboSyn, Inc.); a combination index (CI)<1 is indicative of a synergistic effect.
All experiments were performed 3 times in quadruplicate. Data represent mean±SD (FIG. 7D).

[3] = tested on: MM.1S cells co-cultured with BMSCs; experiment: 3[H]-thymidine incorporation, MM.1S co-cultured with BMSCs; assay type: cell-based, human; details: 7.5, 15, 30 μM, 48 hours (FIG. 6D)
Method: To measure proliferation of MM cells, the rate of DNA synthesis was measured by ^3[H]-thymidine (Perkin-Elmer) uptake. […] Cell proliferation was measured by 3[H]-thymidine incorporation assay. Data represent mean±SD from quadruplicate cultures (FIG. 6D).

[4] = biological target: HDAC1 (Homo sapiens, UniProt Q13547); experiment: HDAC1 inhibitory activity (IC50); assay type: biochemical
Method: (§1) HDAC inhibitor compounds designed and synthesized in accordance with the present invention were tested for their inhibitor activity against several different HDAC isoforms.

[5] = tested on: PBMCs; experiment: MTT growth assay in normal donor PBMCs; assay type: cell-based, human; details: 7.5, 15, 30 μM, 72 hours, MTT (FIG. 6C)
Method: (§2) BM specimens were obtained from patients with MM, and mononuclear cells (MNCs) were separated by Ficoll-Hipaque density sedimentation. Primary CD138+ plasma cells from MM patients were obtained using negative selection, as in previous studies. […] CD138-BMMNCs were used to establish long-term BMSC cultures, as previously described. […] Peripheral blood mononuclear cells were collected from healthy volunteers to obtain mononuclear cells (PBMCs). All procedures were performed with IRB-approved (Dana-Farber Cancer Institute) protocols and informed consent, and in accordance with the Declaration of Helsinki protocol. […] Cell growth was then assessed by MTT assay. Data represents mean±SD from triplicates cultures (FIG. 6B). […] Cell growth was assessed by MTT assay. The data represents mean±SD from triplicate cultures (FIG. 6C).

[6] = tested on: MM.1S xenograft; experiment: Subcutaneous MM.1S murine xenograft model; assay type: in vivo; details: SCID mice
Method: CB17 SCID mice (48-54 days old) were purchased from Charles River Laboratories (Wilmington, Mass.). All animal studies were conducted according to protocols approved by the Animal Ethics Committee of the Dana-Farber Cancer Institute. After irradiation (200cGy), mice were subcutaneously injected with 5×10^6 MM.1S cells in the right flank. […] Tumor size was measured every three days, and tumor volume was calculated with the formula: V=0.5 (a×b^2), where “a” is the long diameter of the tumor and “b” is the short diameter of the tumor. Mice were sacrificed when the tumor reached 2 cm in length or 2 cm^3 volume, or if mice appeared moribund to prevent unnecessary morbidity. Survival was evaluated from the first day of the treatment until death. […] These SCID mice were subcutaneously injected with 5×10^6 MM.1S cells. […] Tumor volume was calculated from caliper measurements twice weekly, and data represent mean±SD (FIG. 9A).

[7] = tested on: MM cell lines; experiment: Cell growth inhibition assay (MTT) in MM cell lines; assay type: cell-based, human; details: MM.1S, RPMI8226, U266, OPM1, H929; 1.875-30 μM, 48 h and 72 h, MTT (FIG. 6A)
Method: To measure proliferation of MM cells, the rate of DNA synthesis was measured by ^3[H]-thymidine (Perkin-Elmer) uptake.
The growth inhibitory effect of Merck60 (HDACL, 2 inhibitor previously reported as compound #60 by Method et al. Bioorg. Med. Chem. Lett. 2008. 18(3):973-8) versus MS275 (HDAC1, 2, 3 inhibitor) was examined in MM cell lines using MTT assay. MM cells were cultured with Merck60 (left panel) or MS275 (right panel) for 48 hours. Cell growth was assessed by MTT assay. All experiments were performed 3 times in quadruplicate. Data represent mean±SD.
Cell growth was assessed by MTT assay. All experiments were performed 3 times in quadruplicate. Data represent mean±SD.

[8] = biological target: HDAC2 (Homo sapiens, UniProt Q92769); experiment: HDAC2 inhibitory activity (IC50); assay type: biochemical
Method: as §1

[9] = biological target: T1, HDAC6; experiment: HDAC6 inhibitory activity (IC50); assay type: biochemical
Method: as §1

[10] = tested on: STAT3 acetylation in MM.1S cells; experiment: Immunoprecipitation/immunoblot of STAT3 acetylation; assay type: cell-based, human; details: 20 μM, 18 hours (FIG. 6H)
Method: Whole-cell lysates were incubated with anti-STAT3, -JAK2, and -green fluorescent protein (GFP) Abs for 2 hours at 4° C., and then incubated with Protein A/G PLUS-Agarose® (Santa Cruz Biotechnology) overnight at 4° C. Anti-GFP Ab served as a control. Immune complexes were analyzed by immunoblotting with anti-STAT3, -JAK2, -acetylated-Lysine, and -phosphorylated-tyrosine Abs. […] Whole cell lysates were immunoprecipitated with anti-STAT3 Ab. Immunoprecipitates were then subjected to SDS-PAGE and immunoblotted with anti-Ac-K and -STAT3 Abs.

[11] = tested on: MM.1S cells; experiment: Immunoblot of histone and α-tubulin acetylation in MM.1S cells; assay type: cell-based, human; details: 12 h, Compound 10 10 and 20 μM
[12] = tested on: primary tumor cells from MM patients; experiment: MTT growth assay in primary tumor cells from MM patients; assay type: cell-based, human; details: 30 μM, 72 hours, MTT (FIG. 6B)
Method: as §2

[13] = biological target: HDAC3 (Homo sapiens, UniProt O15379); experiment: HDAC3 inhibitory activity (IC50); assay type: biochemical
Sequence of HDAC3 (O15379 whole entry): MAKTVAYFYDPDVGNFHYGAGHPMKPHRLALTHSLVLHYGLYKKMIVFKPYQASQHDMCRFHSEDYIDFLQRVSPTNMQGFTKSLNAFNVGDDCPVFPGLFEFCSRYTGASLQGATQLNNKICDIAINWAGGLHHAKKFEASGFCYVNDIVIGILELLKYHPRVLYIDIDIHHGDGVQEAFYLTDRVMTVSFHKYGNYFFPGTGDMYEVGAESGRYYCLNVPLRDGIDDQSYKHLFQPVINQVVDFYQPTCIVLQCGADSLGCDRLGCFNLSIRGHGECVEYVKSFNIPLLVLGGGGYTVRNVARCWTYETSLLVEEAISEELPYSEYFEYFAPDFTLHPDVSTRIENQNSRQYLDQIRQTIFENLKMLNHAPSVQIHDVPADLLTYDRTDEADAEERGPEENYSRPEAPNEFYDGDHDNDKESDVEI
Sequence of HDAC3 (Q9Y618 395-489 partner limits assumed): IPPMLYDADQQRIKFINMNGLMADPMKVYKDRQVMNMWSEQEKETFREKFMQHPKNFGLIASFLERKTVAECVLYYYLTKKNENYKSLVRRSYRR
Method: as §1

Sequence of HDAC2 (Q92769 whole entry): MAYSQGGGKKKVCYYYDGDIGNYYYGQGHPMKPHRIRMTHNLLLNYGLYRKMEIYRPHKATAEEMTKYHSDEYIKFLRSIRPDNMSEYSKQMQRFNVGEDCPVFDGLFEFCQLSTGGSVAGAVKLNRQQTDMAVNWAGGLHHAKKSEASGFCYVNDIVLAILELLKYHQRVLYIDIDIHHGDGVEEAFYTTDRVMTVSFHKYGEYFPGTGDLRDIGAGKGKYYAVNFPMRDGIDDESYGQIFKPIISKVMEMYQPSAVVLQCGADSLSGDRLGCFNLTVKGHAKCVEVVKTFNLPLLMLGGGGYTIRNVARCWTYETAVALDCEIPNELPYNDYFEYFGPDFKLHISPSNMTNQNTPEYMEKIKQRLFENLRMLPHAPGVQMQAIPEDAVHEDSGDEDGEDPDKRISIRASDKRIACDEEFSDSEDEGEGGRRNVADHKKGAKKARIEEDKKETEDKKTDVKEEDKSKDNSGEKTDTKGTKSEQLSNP
Sequence of HDAC1 (Q13547 whole entry): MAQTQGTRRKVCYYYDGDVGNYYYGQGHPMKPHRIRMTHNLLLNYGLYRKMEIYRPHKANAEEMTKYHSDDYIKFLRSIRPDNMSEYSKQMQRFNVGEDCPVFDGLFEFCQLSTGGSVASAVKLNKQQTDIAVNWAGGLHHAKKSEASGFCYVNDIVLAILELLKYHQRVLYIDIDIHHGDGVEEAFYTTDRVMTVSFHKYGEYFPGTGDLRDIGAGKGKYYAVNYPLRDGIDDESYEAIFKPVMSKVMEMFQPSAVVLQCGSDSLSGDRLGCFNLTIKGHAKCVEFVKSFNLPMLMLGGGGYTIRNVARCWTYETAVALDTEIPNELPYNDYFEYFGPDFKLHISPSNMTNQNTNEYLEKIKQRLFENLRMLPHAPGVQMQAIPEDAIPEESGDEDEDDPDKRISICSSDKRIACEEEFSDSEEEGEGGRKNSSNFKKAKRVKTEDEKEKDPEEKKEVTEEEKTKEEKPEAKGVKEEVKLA

## Nc1ccccc1NC(=O)c1cnccn1 [Compound 10, N-(2-aminophenyl)pyrazine-2-carboxamide]
[1]
  inhibition of HDAC6 by acetylated alpha-tubulin Western blot: did not inhibit HDAC6
[2]; BG45 5 μM + bortezomib 2 nM
  CI (combination index): 1.04
[2]; BG45 5 μM + bortezomib 3 nM
  CI (combination index): 0.83
[2]; BG45 5 μM + bortezomib 4 nM
  CI (combination index): 0.84
[2]; BG45 10 μM + bortezomib 2 nM
  CI (combination index): 1.19
[2]; BG45 10 μM + bortezomib 3 nM
  CI (combination index): 0.78
[2]; BG45 10 μM + bortezomib 4 nM
  CI (combination index): 0.77
[2]; BG45 20 μM + bortezomib 2 nM
  CI (combination index): 0.91
[2]; BG45 20 μM + bortezomib 3 nM
  CI (combination index): 0.67
[2]; BG45 20 μM + bortezomib 4 nM
  CI (combination index): 0.63
[2]; RPMI8226, bortezomib 2-4 nM + 5, 10, 20 μM Compound 10, 24 h (FIG. 7D)
  bortezomib-induced cytotoxicity: synergistically enhanced bortezomib-induced cytotoxicity
[3]
  MM cell proliferation in the presence of BMSCs: markedly inhibited MM cell growth even in the presence of BMSCs
[4]; Table 2, read-out: HDAC1
  pIC50: 6.04
[4]; Table 3, read-out: IC50 against the deacetylase activity of HDAC1
  pIC50: 5.70
[5]
  growth of normal donor PBMCs: without affecting normal donor PBMCs
[6]; 15 and 50 mg/kg IP 5 days a week for 3 weeks, versus control, day 22 p<0.05 (FIG. 9A)
  MM tumor growth (tumor volume): significantly inhibited MM tumor growth
[6]; Compound 10 50 mg/kg + bortezomib 0.5 mg/kg sc twice a week, p<0.05
  tumor growth, combination with bortezomib: further enhanced either single agent activity
[7]
  MM cell growth: significantly inhibited MM cell growth in a dose-dependent fashion
[8]; Table 2, read-out: HDAC2
  pIC50: 5.83
[8]; Table 3, read-out: IC50 against the deacetylase activity of HDAC2
  pIC50: 5.66
[9]; Table 2, read-out: HDAC6
  pIC50: 4.10
[9]; Table 3, read-out: IC50 against the deacetylase activity of HDAC6
  pIC50: < 4.70
[10]
  acetylation of STAT3: increased acetylation of STAT3
[11]; LBH589 50 and 100 nM (FIG. 6F left)
  histone acetylation: significantly induced acetylation of histone H2A, H3, and H4
[11]; LBH589 50 and 100 nM (FIG. 6F right)
  α-tubulin acetylation (biomarker of HDAC6 inhibition): did not increase α-tubulin acetylation
[12]
  growth of patient-derived MM cells: potent growth inhibitory effect
[13]; Example 8, read-out: HDAC3 IC50
  pIC50: 6.54
[13]; Table 2, read-out: HDAC3
  pIC50: 6.86

Source: patent US9988343B2, “Inhibitors of histone deacetylase” (Dana-Farber Cancer Institute, Inc., priority 2013, dated 2018)
